According to patent publication US20210205292A1, “INHIBITORS OF CREB-CBP INTERACTION FOR TREATMENT OF LEUKEMIA” (The Board of Trustees of the Leland Stanford Junior …, priority 2016, published 2021):
“Also recorded” adds a separate entry of the source.

What was measured:
[1] = tested on: primary AML patient bone marrow samples; experiment: Primary AML patient bone marrow samples, Trypan blue exclusion assay; format: cell-based, human; conditions: 2 μM, 72 hours
Experimental: AML cell lines were purchased from ATCC and maintained with IMDM (Gibco) supplemented with 10% FBS (Fisher Scientific) and 1% PSG (Gibco). Cells were plated at a density of 2-4×10^5 cells/ml, and treated with various doses of Compound A in 0.1% DMSO or 0.1% DMSO alone. Cell counts and viability were determined using the Vi-CELL XR Cell Viability Analyzer (Beckman Coulter). HL-60 and KG-1 cells overexpressing CREB or CBP were generated using lentiviral gene delivery with subsequent puromycin selection and FACs sorting for GFP. CREB knockdown was achieved by infecting cells with a lentivirus expressing the shRNA sequence 5′-[…]-3′ (SEQ ID NO:). For chemotherapy combination experiments, combination index values were calculated using median effects analysis on Calcusyn software. Human patient bone marrow samples were cultured in DMEM plus 20% FBS and 1×PSG, supplemented with recombinant GM-CSF (20 ng/ml), G-CSF (20 ng/ml), SCF (50 ng/ml), IL-3 (20 ng/ml), and IL-6 (10 ng/ml). Cells were plated at a concentration of 1×10^5 cells/ml in a 12-well plate. Vehicle (0.1% DMSO) or Compound A (2 μM) was added for up to 72 hours. All samples contained >85% AML blasts and were not sorted prior to performing experiments. […] Single cell suspensions of bone marrow culture were subsequently analyzed on a D×P10 flow cytometer (Cytek). […]

Caspase-3 = Caspase-3 protease activity (ApoTarget kit); format: cell-based; parameters: unit of the concentration uncertain
Description: The ApoTarget Caspase-3 Protease Activity Kit (Invitrogen) was used per manufacturer's instructions.
The balance between pro- and anti-apoptotic protein expression contributes to cell fate decisions. CREB regulates the expression of several anti-apoptotic proteins, including Bcl-2, Bcl-XL and Mcl-1. Bcl-2 expression in particular is known to mediate resistance to chemotherapy and influence clinical outcome in a number of cancer types, including AML. The ability of Compound A to cause apoptosis by disrupting the CREB-driven expression of these anti-apoptotic proteins was examined. In HL-60 cells treated with Compound A, apoptosis is induced in a dose- and time-dependent manner. […] Compound A elicited apoptosis through the intrinsic apoptosis pathway, with activation of Caspase-3 (FIG. 5, panel B) and detectable Caspase-9 cleavage (data not shown). Relative caspase-3 activity at 24 hours: 5.4±0.8 for etoposide, 1±0.78, 0.93±0.71, 1.02±0.67, 2.9±0.58, 5.1±0.63, 4.1±0.71 for 0, 1, 1.5, 2, 2.5 and 3 mM Compound A, respectively. Activity at 72 hours: 1.2±0.05 for etoposide, 1.0±0.02, 1.9±0.03, 3.7±0.04, 4.4±0.05, 2.1±0.03, 1.9±0.02 for 0, 1, 1.5, 2, 2.5 and 3 mM Compound A, respectively. The transcription of Bcl-2 decreased following 72 hours of 2 mM Compound A treatment (FIG. 5, panel C), and this was verified by Western blot analysis (FIG. 5, panel D). […] To confirm whether loss of Bcl-2 function alone is sufficient to induce apoptosis in AML cells, HL-60 cells were treated with the validated Bcl-2 inhibitor ABT-737 (50 to 200 nM). […] Bcl-2 levels are influenced by CREB expression in these AML cell lines (FIG. 11, panel C).

CREB/CBP association = biological target: T1, CREB/CBP association (Homo sapiens, UniProt Q92793); experiment: Anti-CBP immunoprecipitation of CREB-transfected HEK293 cells; format: cell-based; conditions: HEK293 lysates or cells, 5 μM, 1 hour
T1 construct: endogenous in cells; host or cells: HEK293 cells (CBP endogenous; CREB from a transfected plasmid)
Experimental: Mutation of Arginine-600 to Alanine reduced binding of Compound A by ˜45% at a concentration of 5 μM, while a KIX mutant lacking amino acids 586-602 reduced binding by ˜70%. Panel C) Binding model of Compound A to CBP KIX domain. […] Panel E). Two KG-1 cell lines were generated in which luciferase was expressed either under the control of a CREB-driven promoter (CRE) or a CMV-driven promoter (CMV). These two cell lines were each treated with a range of Compound A or Analog B concentrations for 6 hours. […] HEK293 cells were transfected with a plasmid expressing CREB. Cells were treated with Compound A (A, 5 μM, lane 3) or DMSO vehicle (D) for 1 hour. Total lysates of transfected HEK293 cells were immunoprecipitated using anti-CBP antibody. Compound A (A, 5 μM) was added during anti-CBP Immunoprecipation process (lane 1). Immunoprecipitates (CBP-IP) and total lysates were analyzed by immunoblotting for phospho-CREB (p-CREB) and CBP.
To test the ability of Compound A to disrupt CREB-CBP binding in cells, a split Renilla luciferase complementation assay was performed. […] This early timepoint was selected to permit accurate reporter gene activity measurement prior to the onset of anticipated global cell dysfunction or death induced by Compound A. Treatment with 3 μM Compound A reduced luciferase activity by 33.2±7.7% at this timepoint. […]

H3K27 acetylation = experiment: Western blot of total and H3K27-specific histone acetylation; format: cell-based; conditions: 6 or 24 hours
Experimental: Cells were lysed in RIPA buffer (Sigma), and the protein concentrations were determined by BCA assay (Thermo Scientific Pierce). Lysates were solubilized in 6×SDS PAGE buffer and […] of protein was loaded into 6-15% SDS PAGE gels, pheresed, and then transferred onto […] PVDF membrane (Millipore). Primary antibodies were applied at a dilution of 1:1000. Anti-Bcl-2, -Bax, -Mcl-1, -Bcl-XL, -Cyclin A and -Cyclin D1 antibodies were purchased from Cell Signaling Technologies. Anti-total acetylated histone and -ac-H3K27 were purchased from Santa Cruz Biotechnologies. Anti-actin and -CREB antibodies were purchased from upstate. Secondary antibodies were used at a 1:2500 dilution and purchased from Thermo Scientific/Pierce. WesternBright ECL was used for image acquisition on Image Lab software (Bio-Rad).

T1 sequence (Q92793 whole entry): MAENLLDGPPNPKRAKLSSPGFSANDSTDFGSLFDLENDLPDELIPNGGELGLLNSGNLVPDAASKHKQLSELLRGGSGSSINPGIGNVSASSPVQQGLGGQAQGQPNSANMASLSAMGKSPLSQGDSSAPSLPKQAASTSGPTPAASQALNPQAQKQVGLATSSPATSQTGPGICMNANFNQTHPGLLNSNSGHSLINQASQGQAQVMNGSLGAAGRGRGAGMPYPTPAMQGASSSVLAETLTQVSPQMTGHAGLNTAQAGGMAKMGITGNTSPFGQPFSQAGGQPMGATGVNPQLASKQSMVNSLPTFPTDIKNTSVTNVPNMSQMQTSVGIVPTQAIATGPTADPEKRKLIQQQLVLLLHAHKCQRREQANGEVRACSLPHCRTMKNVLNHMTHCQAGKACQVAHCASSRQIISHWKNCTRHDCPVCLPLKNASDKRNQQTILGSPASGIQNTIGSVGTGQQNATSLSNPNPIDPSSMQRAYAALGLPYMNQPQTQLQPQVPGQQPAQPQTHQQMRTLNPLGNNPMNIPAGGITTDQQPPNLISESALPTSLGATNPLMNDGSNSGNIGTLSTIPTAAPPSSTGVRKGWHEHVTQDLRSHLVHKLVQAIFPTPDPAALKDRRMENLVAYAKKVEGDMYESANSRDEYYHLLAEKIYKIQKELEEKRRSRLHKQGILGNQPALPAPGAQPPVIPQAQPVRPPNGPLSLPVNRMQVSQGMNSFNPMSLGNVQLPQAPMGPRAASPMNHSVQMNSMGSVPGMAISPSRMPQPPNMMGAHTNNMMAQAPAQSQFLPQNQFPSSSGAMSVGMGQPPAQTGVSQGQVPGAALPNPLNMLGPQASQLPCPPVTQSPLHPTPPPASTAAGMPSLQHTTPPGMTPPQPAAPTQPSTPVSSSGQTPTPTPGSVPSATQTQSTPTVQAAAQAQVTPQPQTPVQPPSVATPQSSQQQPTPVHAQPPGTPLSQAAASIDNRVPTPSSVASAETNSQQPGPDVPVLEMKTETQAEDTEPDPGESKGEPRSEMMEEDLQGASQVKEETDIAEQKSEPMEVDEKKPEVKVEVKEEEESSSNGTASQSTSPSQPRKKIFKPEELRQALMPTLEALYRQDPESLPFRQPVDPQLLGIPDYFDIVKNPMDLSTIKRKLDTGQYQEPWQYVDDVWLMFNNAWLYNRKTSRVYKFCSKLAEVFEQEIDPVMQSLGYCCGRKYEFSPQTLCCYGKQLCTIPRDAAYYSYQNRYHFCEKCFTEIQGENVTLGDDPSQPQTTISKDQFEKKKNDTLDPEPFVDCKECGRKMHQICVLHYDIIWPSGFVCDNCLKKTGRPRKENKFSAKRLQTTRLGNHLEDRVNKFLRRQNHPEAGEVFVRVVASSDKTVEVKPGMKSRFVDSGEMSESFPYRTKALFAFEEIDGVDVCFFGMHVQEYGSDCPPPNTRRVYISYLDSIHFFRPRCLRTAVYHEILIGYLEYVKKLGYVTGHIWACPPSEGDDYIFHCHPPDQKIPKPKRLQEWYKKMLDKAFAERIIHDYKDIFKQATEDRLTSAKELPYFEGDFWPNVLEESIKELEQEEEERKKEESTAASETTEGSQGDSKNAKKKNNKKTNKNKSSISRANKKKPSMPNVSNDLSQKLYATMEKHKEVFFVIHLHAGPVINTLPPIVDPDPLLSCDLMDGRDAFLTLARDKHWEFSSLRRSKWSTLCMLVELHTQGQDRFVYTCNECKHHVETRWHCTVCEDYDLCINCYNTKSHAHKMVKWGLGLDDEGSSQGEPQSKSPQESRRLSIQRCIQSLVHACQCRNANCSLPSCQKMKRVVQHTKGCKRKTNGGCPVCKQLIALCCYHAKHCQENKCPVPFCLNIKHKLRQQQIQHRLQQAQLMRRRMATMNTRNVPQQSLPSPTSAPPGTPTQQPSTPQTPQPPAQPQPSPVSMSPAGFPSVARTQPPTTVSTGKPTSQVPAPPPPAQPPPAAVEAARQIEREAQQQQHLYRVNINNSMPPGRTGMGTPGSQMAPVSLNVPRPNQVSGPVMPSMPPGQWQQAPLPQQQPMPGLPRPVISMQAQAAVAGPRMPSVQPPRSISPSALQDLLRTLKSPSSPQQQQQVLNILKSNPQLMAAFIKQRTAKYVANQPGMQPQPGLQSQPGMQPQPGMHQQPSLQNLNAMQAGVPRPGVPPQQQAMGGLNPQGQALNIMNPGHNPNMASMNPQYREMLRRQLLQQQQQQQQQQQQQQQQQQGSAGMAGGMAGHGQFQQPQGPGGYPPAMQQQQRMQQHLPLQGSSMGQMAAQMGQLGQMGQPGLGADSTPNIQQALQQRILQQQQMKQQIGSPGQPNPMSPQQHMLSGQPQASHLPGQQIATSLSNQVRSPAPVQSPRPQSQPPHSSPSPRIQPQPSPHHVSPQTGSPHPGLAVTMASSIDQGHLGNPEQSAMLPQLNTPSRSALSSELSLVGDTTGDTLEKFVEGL

N#Cc1ccc(NC(=O)c2cc3ccccc3cc2O)cc1 [Compound A, N-(4-cyanophenyl)-3-hydroxy-2-naphthamide]
decreased viable cell count [1]: a range of responsiveness | relative caspase-3 activity (Caspase-3; 24 hours, 1 (unit uncertain)): 0.93±0.71 | relative caspase-3 activity (Caspase-3; 24 hours, 1.5 (unit uncertain)): 1.02±0.67 | relative caspase-3 activity (Caspase-3; 24 hours, 2 (unit uncertain)): 2.9±0.58 | relative caspase-3 activity (Caspase-3; 24 hours, 2.5 (unit uncertain)): 5.1±0.63 | relative caspase-3 activity (Caspase-3; 24 hours, 3 (unit uncertain)): 4.1±0.71 | relative caspase-3 activity (Caspase-3; 72 hours, 1 (unit uncertain)): 1.9±0.03 | relative caspase-3 activity (Caspase-3; 72 hours, 1.5 (unit uncertain)): 3.7±0.04 | relative caspase-3 activity (Caspase-3; 72 hours, 2 (unit uncertain)): 4.4±0.05 | relative caspase-3 activity (Caspase-3; 72 hours, 2.5 (unit uncertain)): 2.1±0.03 | relative caspase-3 activity (Caspase-3; 72 hours, 3 (unit uncertain)): 1.9±0.02 | binding of CREB to CBP (immunoprecipitation) (CREB/CBP association): inhibits CREB/CBP association; also recorded: prevented binding of CREB to CBP | H3K27 acetylation (Western blot) (H3K27 acetylation): specific decrease in H3K27 acetylation
